The test system of one data set is human taste panel. The experiment in a line: Human taste panel magnitude estimation of sweetness intensity and pleasantness. The settings on record: in words; synthetic racemic hernandulcin. The text has this:
Solutions were presented to the subjects in a randomized fashion and were sampled in duplicate. After tasting, each solution was expectorated, and the mouth was washed with distilled water.

The test system of a further data set is male Swiss-Webster mice. The experiment in a line: in vivo. The settings on record: oral, in words. Here is the method:
Compounds were suspended in a minimum volume of 1% sodium carboxymethylcellulose, and were administered by oral intubation at the doses indicated in Table II.
^a Male SwissWebster mice (9 or 10 animals per dose).
^d Mortality = number of mice dying within 14 days/number of starting
^e Mortality = number of mice dying within 24 hours/number of startin

The subject of data set [1] is Salmonella typhimurium strain TM677. The experiment in a line: Forward mutation assay. The class given is cell-based. The following applies: synthetic hernandulcin.
Data set [2] deals with S. mutans. Briefly: Cariogenicity: acid production by S. mutans from sweetener. In kind it is cell-based. Here is the method:
In a first test, the ability of microbes to utilize this sweetener source as a nutrient and convert it to acidic by-products was determined.

Data set [3] concerns S. mutans. The experiment in a line: Cariogenicity: inhibition of acid production from sucrose by S. mutans. In kind it is cell-based. The following applies: 428 micrograms per unit volume sucrose, 5,000 micrograms per unit volume sweetener. The protocol:
In a second test, the ability of the test compound to inhibit acid production from sucrose by S. mutans was determined.

In the case of `CC(C)=CCC[C@@](C)(O)[C@H]1CCC(C)=CC1=O` (relative stereo) [synthetic hernandulcin, 6-(1',5'-dimethyl-1'-hydroxyhex-4'-en-1'-yl)-3-methyl-2-cyclohexen-1-one], in the data set on human taste panel, the Taste entry is listed as “sweet”. The “Acute toxicity for mice” value in the data set with male Swiss-Webster mice is reported as “non-toxic”. Besides, the “Mutagenic activity without metabolic activation” value in data set [1] (in absence of activating system) is “No significant mutagenic activity”. Besides, the “Mutagenic activity with metabolic activation” value in data set [1] (in presence of activating system from livers of Aroclor 1254-pretreated rats) is on record as “No significant mutagenic activity”. Also, in the data set with S. mutans [2] (5,000 micrograms per unit volume sweetener), the “Rate of acid production at 5,000 micrograms per unit volume” value is given as 2.6×10^-5 mEq acid/min. The “Rate of acid production compared to sucrose” value in the data set with S. mutans [2] (in words, 5,000 micrograms per unit volume) is “relatively low rate of acid production”. For the same molecule, in the data set with S. mutans [3], the “Inhibition of acid production from sucrose” value was “failed to reduce the rate of acid production”.

The values are drawn from patent US4808409A, “Low cariogenic sweetening agents” (Board of Trustees, University of Illinois, priority 1984, dated 1989).
